Data: patent publication US4713374A, “Ganglioside derivatives” (priority 1984, dated 1987)

system: PC12 cells; assay: Neurite sprouting in PC12 cells; type: cell-based; settings: 10^-6 M, serum-free vehicle with 50 ng/ml NGF, third day; controls 21.5
Protocol: The cells are then washed three times in a serum-free vehicle. […] This effect is evaluated by counting the number of cells with neurites at the third day.

In order of falling “% of the no. of cells with neurites at 3rd day” value:
1. CCCCCCCCCCCCC/C=C/[C@@H](O)[C@H](CO[C@@H]1O[C@H](CO)[C@@H](O[C@@H]2O[C@H](CO)[C@H](O[C@@H]3O[C@H](CO)[C@H](O)[C@H](O[C@@H]4O[C@H](CO)[C@H](O)[C@H](O)[C@H]4O)[C@H]3NC(C)=O)[C@H](O[C@]3(C(=O)NCCO)C[C@H](O)[C@@H](NC(C)=O)[C@H]([C@H](O)[C@H](O)CO)O3)[C@H]2O)[C@H](O)[C@H]1O)NC(=O)CCCCCCCCCCCCCCCCC [Ethanolamide of GM1, Ethanolamide of the ganglioside GM1]  41.2%
2. CCCCCCCCCCCCC/C=C/[C@@H](O)[C@H](CO[C@@H]1O[C@H](CO)[C@@H](O[C@@H]2O[C@H](CO)[C@H](O[C@@H]3O[C@H](CO)[C@H](O)[C@H](O[C@@H]4O[C@H](CO)[C@H](O)[C@H](O)[C@H]4O)[C@H]3NC(C)=O)[C@H](O[C@]3(C(=O)OCC)C[C@H](O)[C@@H](NC(C)=O)[C@H]([C@H](O)[C@H](O)CO)O3)[C@H]2O)[C@H](O)[C@H]1O)NC(=O)CCCCCCCCCCCCCCCCC [Ethylic ester of GM1, Ethyl ester of the ganglioside GM1]  37.1%
3. CCCCCCCCCCCCC/C=C/[C@@H](O)[C@H](CO[C@@H]1O[C@H](CO)[C@@H](O[C@@H]2O[C@H](CO)[C@H](O[C@@H]3O[C@H](CO)[C@H](O)[C@H](O[C@@H]4O[C@H](CO)[C@H](O)[C@H](O)[C@H]4O)[C@H]3NC(C)=O)[C@H](O[C@]3(C(=O)OC(C)C)C[C@H](O)[C@@H](NC(C)=O)[C@H]([C@H](O)[C@H](O)CO)O3)[C@H]2O)[C@H](O)[C@H]1O)NC(=O)CCCCCCCCCCCCCCCCC [Isopropylic ester of GM1, Isopropyl ester of the ganglioside GM1]  37.0%
4. CCCCCCCCCCCCC/C=C/[C@@H](O)[C@H](CO[C@@H]1O[C@H](CO)[C@@H](O[C@@H]2O[C@H](CO)[C@H](O[C@@H]3O[C@H](CO)[C@H](O)[C@H](O[C@@H]4O[C@H](CO)[C@H](O)[C@H](O)[C@H]4O)[C@H]3NC(C)=O)[C@H](O[C@]3(C(=O)N(C)CC)C[C@H](O)[C@@H](NC(C)=O)[C@H]([C@H](O)[C@H](O)CO)O3)[C@H]2O)[C@H](O)[C@H]1O)NC(=O)CCCCCCCCCCCCCCCCC [Ethylmethylamide of GM1, Ethylmethylamide of the ganglioside GM1]  35.3%
5. CCCCCCCCCCCCC/C=C/[C@@H](O)[C@H](CO[C@@H]1O[C@H](CO)[C@@H](O[C@@H]2O[C@H](CO)[C@H](O[C@@H]3O[C@H](CO)[C@H](O)[C@H](O[C@@H]4O[C@H](CO)[C@H](O)[C@H](O)[C@H]4O)[C@H]3NC(C)=O)[C@H](O[C@]3(C(=O)NCCN(C)C)C[C@H](O)[C@@H](NC(C)=O)[C@H]([C@H](O)[C@H](O)CO)O3)[C@H]2O)[C@H](O)[C@H]1O)NC(=O)CCCCCCCCCCCCCCCCC [Dimethylaminoethylamide of GM1, Dimethylaminoethylamide of the ganglioside GM1]  34.8%
6. CCCCCCCCCCCCC/C=C/[C@@H](O)[C@H](CO[C@@H]1O[C@H](CO)[C@@H](O[C@@H]2O[C@H](CO)[C@H](O[C@@H]3O[C@H](CO)[C@H](O)[C@H](O[C@@H]4O[C@H](CO)[C@H](O)[C@H](O)[C@H]4O)[C@H]3NC(C)=O)[C@H](O[C@]3(C(=O)N(C)C)C[C@H](O)[C@@H](NC(C)=O)[C@H]([C@H](O)[C@H](O)CO)O3)[C@H]2O)[C@H](O)[C@H]1O)NC(=O)CCCCCCCCCCCCCCCCC [Dimethylamide of GM1, Dimethylamide of the ganglioside GM1]  34.3%
7. CCCCCCCCCCCCC/C=C/[C@@H](O)[C@H](CO[C@@H]1O[C@H](CO)[C@@H](O[C@@H]2O[C@H](CO)[C@H](O[C@@H]3O[C@H](CO)[C@H](O)[C@H](O[C@@H]4O[C@H](CO)[C@H](O)[C@H](O)[C@H]4O)[C@H]3NC(C)=O)[C@H](O[C@]3(C(=O)OC(C)(C)C)C[C@H](O)[C@@H](NC(C)=O)[C@H]([C@H](O)[C@H](O)CO)O3)[C@H]2O)[C@H](O)[C@H]1O)NC(=O)CCCCCCCCCCCCCCCCC [Tertiarbutylic ester of GM1, Tertiary butyl ester of the ganglioside GM1]  32.3%
8. CCCCCCCCCCCCC/C=C/[C@@H](O)[C@H](CO[C@@H]1O[C@H](CO)[C@@H](O[C@@H]2O[C@H](CO)[C@H](O[C@@H]3O[C@H](CO)[C@H](O)[C@H](O[C@@H]4O[C@H](CO)[C@H](O)[C@H](O)[C@H]4O)[C@H]3NC(C)=O)[C@H](O[C@]3(C(=O)NCC)C[C@H](O)[C@@H](NC(C)=O)[C@H]([C@H](O)[C@H](O)CO)O3)[C@H]2O)[C@H](O)[C@H]1O)NC(=O)CCCCCCCCCCCCCCCCC [Ethylamide of GM1, Ethylamide of the ganglioside GM1]  32.2%
9. CCCCCCCCCCCCC/C=C/[C@@H](O)[C@H](CO[C@@H]1O[C@H](CO)[C@@H](O[C@@H]2O[C@H](CO)[C@H](O[C@@H]3O[C@H](CO)[C@H](O)[C@H](O[C@@H]4O[C@H](CO)[C@H](O)[C@H](O)[C@H]4O)[C@H]3NC(C)=O)[C@H](O[C@]3(C(=O)NC(C)C)C[C@H](O)[C@@H](NC(C)=O)[C@H]([C@H](O)[C@H](O)CO)O3)[C@H]2O)[C@H](O)[C@H]1O)NC(=O)CCCCCCCCCCCCCCCCC [Isopropylamide of GM1, Isopropylamide of the ganglioside GM1]  31.4%
10. CCCCCCCCCCCCC/C=C/[C@@H](OC(C)=O)[C@H](CO[C@@H]1O[C@H](COC(C)=O)[C@@H](O[C@@H]2O[C@H](COC(C)=O)[C@H](O[C@@H]3O[C@H](COC(C)=O)[C@H](OC(C)=O)[C@H](O[C@@H]4O[C@H](COC(C)=O)[C@H](OC(C)=O)[C@H](OC(C)=O)[C@H]4OC(C)=O)[C@H]3NC(C)=O)[C@H](O[C@]3(C(=O)O)C[C@H](OC(C)=O)[C@@H](NC(C)=O)[C@H]([C@H](OC(C)=O)[C@@H](COC(C)=O)OC(C)=O)O3)[C@H]2OC(C)=O)[C@H](OC(C)=O)[C@H]1OC(C)=O)NC(=O)CCCCCCCCCCCCCCCCC [Peracetylated GM1, Peracetylated derivative of the ganglioside GM1]  30.2%
11. CCCCCCCCCCCCC/C=C/[C@@H](OC(C)=O)[C@H](CO[C@@H]1O[C@H](COC(C)=O)[C@@H](O[C@@H]2O[C@H](COC(C)=O)[C@H](O[C@@H]3O[C@H](COC(C)=O)[C@H](OC(C)=O)[C@H](O[C@@H]4O[C@H](COC(C)=O)[C@H](OC(C)=O)[C@H](OC(C)=O)[C@H]4OC(C)=O)[C@H]3NC(C)=O)[C@H](O[C@]3(C(=O)OC)C[C@H](OC(C)=O)[C@@H](NC(C)=O)[C@H]([C@H](OC(C)=O)[C@@H](COC(C)=O)OC(C)=O)O3)[C@H]2OC(C)=O)[C@H](OC(C)=O)[C@H]1OC(C)=O)NC(=O)CCCCCCCCCCCCCCCCC [Methylic ester of peracetylated GM1, Peracetylated derivative of the methyl ester of the ganglioside GM1]  29.4%
12. CCCCCCCCCCCCC/C=C/[C@@H](O)[C@H](CO[C@@H]1O[C@H](CO)[C@@H](O[C@@H]2O[C@H](CO)[C@H](O[C@@H]3O[C@H](CO)[C@H](O)[C@H](O[C@@H]4O[C@H](CO)[C@H](O)[C@H](O)[C@H]4O)[C@H]3NC(C)=O)[C@H](O[C@]3(C(=O)N(CC)CC)C[C@H](O)[C@@H](NC(C)=O)[C@H]([C@H](O)[C@H](O)CO)O3)[C@H]2O)[C@H](O)[C@H]1O)NC(=O)CCCCCCCCCCCCCCCCC [Diethylamide of GM1, Diethylamide of the ganglioside GM1]  28.5%
13. CCCCCCCCCCCCC/C=C/[C@@H](O)[C@H](CO[C@@H]1O[C@H](CO)[C@@H](O[C@@H]2O[C@H](CO)[C@H](O[C@@H]3O[C@H](CO)[C@H](O)[C@H](O[C@@H]4O[C@H](CO)[C@H](O)[C@H](O)[C@H]4O)[C@H]3NC(C)=O)[C@H](O[C@]3(C(=O)OCC(=O)OCC)C[C@H](O)[C@@H](NC(C)=O)[C@H]([C@H](O)[C@H](O)CO)O3)[C@H]2O)[C@H](O)[C@H]1O)NC(=O)CCCCCCCCCCCCCCCCC [Etoxycarbonylmethylic ester of GM1, Ethoxycarbonylmethyl ester of the ganglioside GM1]  27.3%
